Experimental data reported in patent US9550752B2, “Triazolinthione derivatives” (priority 2013, dated 2017).
Marks after values point to notes of the source that are not given here.

Tested on: Botrytis cinerea
Assay: In vivo preventive test on Botrytis cinerea (grey mould)
Settings: 100 ppm of active ingredient; gherkin plants, preventive spray; evaluated 4 to 5 days after inoculation
Experimental: (§1) The young plants of gherkin are treated by spraying the active ingredient prepared as described above. Control plants are treated only with an aqueous solution of acetone/Dimethyl sulfoxide/tween®. After 24 hours, the plants are contaminated by spraying the leaves with an aqueous suspension of Botrytis cinerea spores.

| Structure (SMILES) | biological efficacy [%] |
| --- | --- |
| OC(Cc1ccncc1Cl)(Cn1ncnc1S)C1(F)CC1 (centres unmarked) [Example I-13] | ≥ 90 |

Tested on: not given
Assay: not given
Settings: method [a]: pH 2.7, 0.1% formic acid in water/acetonitrile; Table 1, formula (I)

| Structure (SMILES) | LogP |
| --- | --- |
| OC(Cc1ccc2ccccc2n1)(Cn1ncnc1S)C1(Cl)CC1 (centres unmarked) [Example I-7] | 1.60^[a] |

Same assay, conditions: method [a]: pH 2.7, 0.1% formic acid in water/acetonitrile; Table 2, formula (XXI)

| Structure (SMILES) | LogP |
| --- | --- |
| OC(Cc1ccncc1Cl)(Cn1cncn1)c1ccc2oc3ccccc3c2c1 (centres unmarked) [XXI-85] | 2.40^[a] |

Same assay, conditions: method [a]: pH 2.7; Table 3, formula (V)

| Structure (SMILES) | LogP |
| --- | --- |
| CC(C)C(C)(C)C(=O)Cc1ccncc1Cl [Example V-18] | 3.00^[a] |
| O=C(Cc1cccnc1Cl)C(CF)(CF)CF [Example V-25] | 1.98^[a] |
| CC(C)(C)C(=O)Cc1cccnc1Cl [Example V-16] | 2.34^[a] |
| CC(C)(C)C(=O)Cc1ccncc1 [Example V-20] | 0.35 |
| CC(C)(C)C(=O)Cc1ccc(Cl)nc1 [Example V-15] | 2.47^[a] |
| CC(C)(C)C(=O)Cc1cnc2ccccc2c1 [Example V-14] | 1.60^[a] |

Same assay, conditions: method [a]: pH 2.7; Table 4, formula (XII)

| Structure (SMILES) | LogP |
| --- | --- |
| CC(C)(C)C1(Cc2ccnc(Cl)c2)CO1 (centres unmarked) [XII-22] | 3.06^[a] |
| CC(C)(C)C1(Cc2cnc3ccccc3c2)CO1 (centres unmarked) [XII-7] | 1.86^[a] |
| CCC(C)(C)C1(Cc2ccncc2F)CO1 (centres unmarked) [XII-15] | 2.76^[a] |
| CCCC(C)(C)C1(Cc2ccncc2Cl)CO1 (centres unmarked) [XII-57] | 2.03^[a] |
| CCC(C)(C)C1(Cc2ccncc2Cl)CO1 (centres unmarked) [XII-34] | 3.33^[a] |
| CCC(C)(C)C1(Cc2c(Cl)cncc2Cl)CO1 (centres unmarked) [XII-54] | 4.41^[a] |
| CC(C)(C)C1(Cc2cc(F)ncc2Cl)CO1 (centres unmarked) [XII-38] | 3.65^[a] |
| CC(C)(C)C1(Cc2ccncc2F)CO1 (centres unmarked) [XII-12] | 2.31^[a] |
| CC(C)C(C)(C)C1(Cc2ccncc2Cl)CO1 (centres unmarked) [XII-30] | 3.75^[a] |
| CC(C)(C)C1(Cc2ncc(Cl)cc2Cl)CO1 (centres unmarked) [XII-6] | 4.06^[a] |

Same assay, conditions: method [b]: pH 7.8; Table 3, formula (V)

| Structure (SMILES) | LogP |
| --- | --- |
| CC(C)(C)C(=O)Cc1ccncc1 [Example V-20] | 1.75 |

Same assay, conditions: pH 2.7

| Structure (SMILES) | LogP |
| --- | --- |
| CC1(C(O)(Cc2ccncc2Cl)Cn2cncn2)CC1 (racemic) [XXI-54] | 1.57^[a] |
| CC(C)(C)C(O)(Cc1cc(Cl)nc(Cl)c1)Cn1cncn1 (racemic) [XXI-106] | 2.64^[a] |
| CC(C)(C)C(O)(Cc1ccnc2ccccc12)Cn1cncn1 (racemic) [XXI-107] | 1.17^[a] |
| CC(C)(Oc1ccc(Cl)cc1)C(O)(Cc1ccncc1Cl)Cn1cncn1 (centres unmarked) [XXI-75] | 2.84^[a] |
| CCOC(=O)OC(Cc1cccnc1Cl)(Cn1cncn1)C(C)(C)C (racemic) [XXI-121] | 2.67^[a] |
| OC(CCl)(Cc1cc(Cl)nc(Cl)c1)C1(Cl)CC1 (centres unmarked) [XV-1] | 3.85^[a] |
| CCCCc1nc2ccccc2cc1CC(O)(Cn1ncnc1S)C(C)(C)C (centres unmarked) [Example I-6] | 1.88^[a] |
| Cc1cccc2cc(CC(O)(Cn3cncn3)C3(Cl)CC3)c(Cl)nc12 (centres unmarked) [XXI-89] | 3.53^[a] |
| COC(C)(C)C(O)(Cc1ccncc1Cl)Cn1cncn1 (racemic) [XXI-123] | 1.48^[a] |
| OC(Cc1nccnc1I)(Cn1cncn1)C1(Cl)CC1 (racemic) [XXI-59] | 2.07^[a] |
| OC(CCc1ccccc1Cl)(Cc1ccncc1Cl)Cn1cncn1 (centres unmarked) [XXI-73] | 2.29^[a] |
| CCC(C)(C)C(O)(Cc1ccncc1F)Cn1ncnc1S (centres unmarked) [Example I-17] | 2.14^[a] |
| CC(C)(C)C(O)(Cc1cnc2ccccc2c1)Cn1ncnc1S (centres unmarked) [Example I-5] | 1.58^[a] |
| CC(CF)(CF)C(O)(Cc1ccnc(Cl)c1)Cn1cncn1 (racemic) [XXI-41] | 1.66^[a] |
| OC(COc1ccc(F)cc1)(Cc1ccncc1Cl)Cn1cncn1 (centres unmarked) [XXI-84] | 1.86^[a] |
| CC(C)(CCl)C(O)(Cc1ccncc1Cl)Cn1cncn1 (centres unmarked) [XXI-95] | 1.76^[a] |
| OC(Cc1cccc(Cl)c1)(Cc1ccnc(Cl)c1)Cn1cncn1 (racemic) [XXI-42] | 2.42^[a] |
| CC(C)(C)C(O)(Cc1ccnc2ccccc12)Cn1ncnc1S (centres unmarked) [Example I-9] | 1.59^[a] |
| OC(Cc1ccncn1)(Cn1cncn1)C1(Cl)CC1 (racemic) [XXI-55] | 1.10^[a] |
| OC(Cc1cccc(Cl)c1)(Cc1ccnc(Cl)c1F)Cn1cncn1 (centres unmarked) [XXI-93] | 2.02^[a] |
| CC(C)(C)C(O)(Cc1ccnc(Cl)c1)Cn1cncn1 (racemic) [XXI-112] | 1.93^[a] |
| CC1(C(O)(Cc2cccnc2Cl)Cn2ncnc2S)CC1 (centres unmarked) [Example I-15] | 2.14^[a] |
| OC(Cc1ccnc2ccccc12)(Cn1ncnc1S)C1(Cl)CC1 (centres unmarked) [Example I-12] | 1.37^[a] |
| OC(Cc1cc(Cl)ccn1)(Cn1cncn1)C1(Cl)CC1 (racemic) [XXI-52] | 2.02^[a] |
| OC(Cc1cncc(Oc2ccc(Cl)cc2)n1)(Cn1cncn1)C1(Cl)CC1 (racemic) [XXI-61] | 2.88^[a] |

| Structure (SMILES) | LogP |
| --- | --- |
| CC(CF)(CF)C(O)(Cc1ccncc1F)Cn1ncnc1S (centres unmarked) [Example I-22] | 1.58^[a] |
| OC(Cc1ccncc1Cl)(Cn1ncnc1S)C1(F)CC1 (centres unmarked) [Example I-13] | 1.63^[a] |
| OC(Cc1ccc(F)cc1)(Cc1ccncc1Cl)Cn1cncn1 (centres unmarked) [XXI-80] | 1.93^[a] |
| CC(C)(C)C(O)(Cc1ccc(Cl)c(Cl)n1)Cn1ncnc1S (centres unmarked) [Example I-14] | 3.00^[a] |
| OC(Cc1ccnc(Cl)c1)(Cn1cncn1)c1ccc(Cl)nc1 (racemic) [XXI-43] | 1.38^[a] |
| OC(Cc1cc(Oc2ccc(Cl)cc2)nnc1Cl)(Cn1cncn1)C1(Cl)CC1 (racemic) [XXI-60] | 3.08^[a] |
| OC(Cc1ccncc1Cl)(Cn1cncn1)C1CCC1 (centres unmarked) [XXI-82] | 1.46^[a] |
| OC(Cc1ccc(Cl)nc1Cl)(Cn1cncn1)C1(Cl)CC1 (racemic) [XXI-58] | 2.55^[a] |
| OC(Cc1ccncc1F)(Cn1ncnc1S)C1(F)CC1 (centres unmarked) [Example I-21] | 1.29^[a] |
| OC(Cc1ccncc1Cl)(Cn1cncn1)C1(c2ccccc2)CC1 (centres unmarked) [XXI-83] | 2.23^[a] |
| Cc1cccc(CC(O)(Cn2cncn2)C2(Cl)CC2)n1 (racemic) [XXI-53] | 0.52^[a] |
| OC(Cc1ccnc(Cl)c1)(Cn1cncn1)C1(Cl)CC1 (racemic) [XXI-44] | 1.76^[a] |
| CC(C)(Oc1ccc(F)cc1)C(O)(Cc1ccncc1Cl)Cn1cncn1 (centres unmarked) [XXI-96] | 2.48^[a] |
| CC(C)(C)C(O)(Cc1ccc2ccccc2n1)Cn1cncn1 (racemic) [XXI-105] | 1.51^[a] |
| CC(C)(C)C(O)(Cc1cnc2ccccc2c1)Cn1cncn1 (centres unmarked) [XXI-8] | 1.18^[a] |
| OC(Cc1ccnc(Cl)c1F)(Cn1cncn1)c1cccnc1Cl (racemic) [XXI-64] | 1.54^[a] |
| CCC(C)(C)C(O)(Cc1ccnc(Cl)c1)Cn1cncn1 (racemic) [XXI-111] | 2.27^[a] |
| OC(Cc1cccnc1Cl)(Cn1ncnc1S)C1(F)CC1 (centres unmarked) [Example I-11] | 1.76^[a] |
| OC(Cc1cc(F)ncc1Cl)(Cn1cncn1)C1(Cl)CC1 (centres unmarked) [XXI-94] | 2.30^[a] |
| CC(C)(C)C(O)(Cc1ccncc1F)Cn1cncn1 (racemic) [XXI-103] | 1.41^[a] |
| CC(C)(C)C(O)(Cc1ccncc1Cl)Cn1cncn1 (centres unmarked) [XXI-11] | 1.74^[a] |
| OC(Cc1ncnc(Cl)c1Cl)(Cn1cncn1)C1(Cl)CC1 (racemic) [XXI-62] | 2.28^[a] |
| CC(C)(C)C(O)(Cc1ccc(Cl)c(Cl)n1)Cn1cncn1 (racemic) [XXI-109] | 2.78^[a] |
| CC(C)(C)C(O)(Cc1cc(Cl)cc(Cl)n1)Cn1cncn1 (racemic) [XXI-108] | 2.86^[a] |
| CC(C)(C)C(O)(Cc1ccncc1Cl)Cn1ncnc1S (centres unmarked) [Example I-2] | 2.14^[a] |

Same assay, conditions: pH 7.8

| Structure (SMILES) | LogP |
| --- | --- |
| CCOC(=O)OC(Cc1cccnc1Cl)(Cn1cncn1)C(C)(C)C (racemic) [XXI-121] | 2.56^[b]; |
| CC(C)(CCl)C(O)(Cc1ccncc1Cl)Cn1cncn1 (centres unmarked) [XXI-95] | 1.96^[b]; |
| CC(C)(Oc1ccc(F)cc1)C(O)(Cc1ccncc1Cl)Cn1cncn1 (centres unmarked) [XXI-96] | 2.60^[b]; |

Tested on: not listed separately
Assay: physchem
Settings: pH 2.7

| Structure (SMILES) | chromatographic logP |
| --- | --- |
| O=C(Cc1cccnc1Cl)C1(Cl)CC1 [Example V-3, 1-(1-chlorocyclopropyl)-2-(2-chloropyridin-3-yl)ethanone] | 2.2 |

Same assay, conditions: pH 7.8

| Structure (SMILES) | chromatographic logP |
| --- | --- |
| O=C(Cc1cccnc1Cl)C1(Cl)CC1 [Example V-3, 1-(1-chlorocyclopropyl)-2-(2-chloropyridin-3-yl)ethanone] | 2.21 |

Same assay, conditions: reversed phase HPLC column, pH 2.7

| Structure (SMILES) | chromatographic logP |
| --- | --- |
| OC(Cc1ccncc1Cl)(Cn1cncn1)C1(Cl)CC1 (centres unmarked) [XXI-5, 2-(1-chlorocyclopropyl)-1-(3-chloropyridin-4-yl)-3-(1H-1,2,4-triazol-1-yl)propan-2-ol] | 1.67 |
| OC(Cc1ccncc1Cl)(Cn1nc[nH]c1=S)C1(Cl)CC1 (centres unmarked) [Example I-3, 2-[2-(1-chlorocyclopropyl)-3-(3-chloropyridin-4-yl)-2-hydroxypropyl]-2,4-dihydro-3H-1,2,4-triazole-3-thione] | 2.01 |

Same assay, conditions: reversed phase HPLC column, pH 7.8

| Structure (SMILES) | chromatographic logP |
| --- | --- |
| OC(Cc1ccncc1Cl)(Cn1cncn1)C1(Cl)CC1 (centres unmarked) [XXI-5, 2-(1-chlorocyclopropyl)-1-(3-chloropyridin-4-yl)-3-(1H-1,2,4-triazol-1-yl)propan-2-ol] | 1.75 |

Tested on: Pyrenophora teres
Assay: In vivo preventive test on Pyrenophora teres (net blotch on barley)
Settings: 500 ppm of active ingredient; barley plants, preventive spray; evaluated 14 days after inoculation
Experimental: as §1, with “barley” for “gherkin”, “Pyrenophora teres” for “Botrytis cinerea”

| Structure (SMILES) | biological efficacy [%] |
| --- | --- |
| CCC(C)(C)C(O)(Cc1ccncc1F)Cn1ncnc1S (centres unmarked) [Example I-17] | ≥ 90 |

Tested on: Pyricularia oryzae
Assay: not given
Assay type: in vivo
Settings: 500 ppm of active ingredient; rice, preventive; evaluated 8 days after inoculation

| Structure (SMILES) | biological efficacy [%] |
| --- | --- |
| OC(Cc1cccnc1Cl)(Cn1ncnc1S)C1(F)CC1 (centres unmarked) [Example I-11] | ≥ 90 |
